Assay results reported in patent publication US10087139B2, “3-Phenylisoserine derivative production method” (Toray Fine CHhemicals Co., Ltd., priority 2015, dated 2018).

How the values were obtained:
[1] = Solubility of N-protected-3-phenylisoserine in the extraction solvents; format: physicochemical
Procedure: (§1) The same operation as in Example 1 was carried out except that toluene was used instead of tetrahydrofuran as the extraction solvent in the extraction step of Example 1. As a result, (2R,3S)—N-benzoyl-3-phenylisoserine as an intermediate could be hardly extracted into the organic layer. To evaluate the performance of the extraction solvent, solubility of (2R,3S)—N-benzoyl-3-phenylisoserine was investigated for comparison.
as §1, with “cyclopentyl methyl ether” for “toluene”
as §1, with “methyl-tert-butyl ether” for “toluene”
as §1, with “acetonitrile” for “toluene”

[2] = Solubility of N-protected-3-phenylisoserine in the extraction solvents; format: physicochemical; details: solvent 1,2-dimethoxyethane
[3] = solvent cyclopentyl methyl ether
[4] = solvent methyl-tert-butyl ether

## CC(C)(C)OC(=O)NC(c1ccccc1)C(O)C(=O)O (stereo not shown) [N-tert-butoxycarbonyl-3-phenylisoserine]
[1]; solvent tetrahydrofuran
  Solubility (20° C.): 10.1 wt %
  Solubility (40° C.): 12.2 wt %

## COC(=O)[C@H](O)[C@@H](NC(=O)c1ccccc1)c1ccccc1 [Example 1, (2R,3S)—N-benzoyl-3-phenylisoserine methyl ester]
other
  melting point: 183 to 185 °C

## COC(=O)[C@H](O)[C@@H](NC(=O)OC(C)(C)C)c1ccccc1 [Example 2, (2R,3S)—N-tert-butoxycarbonyl-3-phenylisoserine methyl ester]
other
  melting point: 131 to 133 °C

## O=C(N[C@@H](c1ccccc1)[C@@H](O)C(=O)O)c1ccccc1 [(2R,3S)—N-benzoyl-3-phenylisoserine]
[1]; solvent acetonitrile
  Solubility (20° C.): 2.2 wt %
  Solubility (40° C.): 2.9 wt %
[1]; [3]
  Solubility (20° C.): 0.4 wt %
  Solubility (40° C.): 0.4 wt %
[1]; [4]
  Solubility (20° C.): 0.2 wt %
  Solubility (40° C.): 0.4 wt %
[1]; solvent tetrahydrofuran
  Solubility (20° C.): 9.2 wt %
  Solubility (40° C.): 11.6 wt %
[1]; solvent toluene
  Solubility (20° C.): <0.1 wt %
  Solubility (40° C.): <0.1 wt %
[2]; 20° C.
  Solubility (20° C.): 12.7 wt %
[2]; 40° C.
  Solubility (40° C.): 13.6 wt %
